Like-named read-outs stand apart in the source and are kept apart here.
Legend:
[1] = Urinary and serum amino-acid concentration by mass spectrometry in Ctns KO mice; type: in vivo; details: for Urinary alanine / Urinary cystine / Urinary glycine: Ctns KO mice at 8 months of age, 24-h urine, mean ± SEM; for increase of cystinuria: vs control diet; for concentration at 2 months: n = 4
Experimental: (§1) Body weight was recorded before entering the metabolic cages. […] Creatinine clearance was normalized by mouse body weight.
Quantitative analysis of underivatized amino-acids in serum and urine samples was performed using the Amino Acids LC–MS/MS analysis Kit Jasem®. […] Equipment was controlled and data were analyzed using MassHunter Workstation (Agilent Technologies). The assay was validated for selectivity, specificity, linearity and limit of quantification, accuracy and precision, matrix effects and recovery, and stability.

megalin pathway = details: mouse, in vivo
Experimental: After 24-h adaptation in metabolic cages, urine was collected during the following 24 h in presence of 0.1% sodium azide and 1x-protease inhibitors (Thermo Scientific). When in metabolic cages, mice had free access to tap water and food. Blood was collected 2 days before starting the treatments and entry into metabolic cages (baseline) and at the sacrifice to obtain serum. Body weight was recorded before entering the metabolic cages. Urine and serum analyses were performed by the veterinary laboratory Appialab Srl (Rome, Italy). Urinary levels of CC16 were measured by the Mouse Clara Cell Protein 16 kit 96 T #EKU03200 (Biomatik) according to manufacturer’s instructions. Serum levels of cystatin-C were measured by the Mouse/Rat Cystatin C Quantitative ELISA #MSCTC0 (R&D Systems). […] Creatinine clearance was normalized by mouse body weight.

Ctns KO mice kidneys = test: Kidney cystine content in Ctns KO mice; type: in vivo; details: for mean kidney cystine at 8 months-of-age: Ctns KO female mice, diet from 6-to-8 months-of-age; for kidney cystine as percentage of mean control diet, pooled for 8 and 12 months-of-age: 2 and 6 months of treatment
Experimental: For this pilot study, we selected tissue accumulation of cystine as a clear and measurable outcome to quantify long-term interference of dAAs with the endocytic supply of disulfide-rich plasma proteins to kidney PTCs.
Mice were euthanized by cabon dioxide (CO2) inhalation. Dissected tissues were homogenized in 10 mM N-ethylmaleimide. Protein fraction was obtained after precipitation in 10% 5-sulfosalicylic acid and centrifugation at 20,000g for 20 min at 4 °C. Protein pellet was resuspended in 100 mM NaOH and assayed by the Bio-Rad Protein Assay according to manufacturer’s instructions. Supernatant (50 μl) was mixed with 50 μL of the internal standard solution (Cystine d6) and vortexed for 5 s; then the mixture was extracted with 200 μl of acetonitrile, vortexed for at least 30 s, then centrifuged at 13,000 rpm for 9 min. Liquid chromatography and mass spectrometry analysis was performed by a UHPLC Agilent 1290 Infinity II 6470 (Agilent Technologies) equipped with an ESI-JET-STREAM source operating in the positive ion (ESI +) mode. Equipment was controlled and data were analyzed using MassHunter Workstation (Agilent Technologies). The separation column was InfinityLab Poroshell 120 HILIC 1.9 μm 100 × 2.1 mm (Agilent Technologies). Validation of the method was performed basing on the US Food and Drug Administration (FDA) guideline for industry bioanalytical method validation (FDA 2013) and European Medicines Agency (EMA) guideline (EMA 2011). The assay was validated for selectivity, specificity, linearity and limit of quantification, accuracy and precision, matrix effects and recovery, and stability.

NaPi-IIa and SGLT-2 = NaPi-IIa and SGLT-2 mRNA levels in Ctns KO mice kidneys; type: in vivo; details: Ctns KO mice kidneys at 8 months of age, fold-change viz control diet
Experimental: At cellular level, we assessed PT cell death linked to compensatory renewal, by measuring Ki-67 immunolabelling abundance, a validated proliferation index (Fig. 6a)[22]. […] At subcellular level, NaPi-IIa and SGLT-2 mRNA levels were measured as apical differentiation markers (Fig. 6b,c).
Figure 6 Effects of diets on selected PTC indices in Ctns KO mice kidneys at 8 months of age. (a) Proliferative events in PTCs were identified by Ki-67 immunolabelling in confocal images and scored over random fields to cumulative areas of 0.96 mm^2. […] For representative confocal images and proliferation events in all cortical compartments, see Supplemental Fig. 6. (b,c) Apical differentiation state. Expression levels of NaPi-IIa and SGLT-2 as representative apical PT transporters were calculated as ratios to the housekeeping gene, HPRT1, and presented as fold-change viz control diet.

[2] = Clinical urine and serum analyses in Ctns KO mice under 5x-dAA diets
Source text: We also attempted to further discriminate between luminal (competition for surface megalin binding) and intracellular metabolic effects (see Discussion) by comparing the effects of 5x-L-lysine to its stereoisomer, 5x-D-lysine. Unless stated otherwise, diets were initiated at 6 months-of-age, and mice were studied then euthanized at 8 months-of-age (2-months treatment). This time frame was selected for two reasons. First, in the mouse cystinosis model, this an appropriate window to evaluate the impact on PTC alterations based on changes in kidney cystine accumulation and overall function. […] Second, although primary prevention by earlier intervention (from 2-to-6 months-of-age) better mimics perinatal genetic megalin ablation, thus could be more efficient, secondary intervention (starting at 6 months-of-age), when disease becomes clinically apparent, is more relevant for further translational studies.
as §1

[3] = Ctns KO mice, daily urine collections
[4] = female, C57BL/6, mouse, in vivo, 2 months
[5] = Ctns KO mice at 8 months of age, 2 months of treatment, serum, mean ± SEM
[6] = Ctns KO mice at 8 months of age, 2 months of treatment, urine, mean ± SEM

With `N=C(N)NCCC[C@H](N)C(=O)O` [5x-L-arginine, L-arginine] the Urinary alanine [1] was 712.5 ± 216.9 mM/M creatinine, the Urinary cystine [1] was 146.6 ± 43.7 mM/M creatinine and the Urinary glycine [1] was 963.7 ± 218.1 mM/M creatinine. For the same compound, the “urinary arginine concentration reached” value [1, 3] was ~ 1 mM, the increase of cystinuria ([1]; Ctns KO mice) was “twofold” and the increase of argininuria [1, 4] was 33 fold. For the same compound, the concentration at 2 months ([1]; female, C57BL/6, mouse, serum, oral, 7.6 g/kg/day, Ctns KO mice, read-out: serum arginine) was 137 ± 35 µM, the Urine microalbumin/creatinine (megalin pathway) was 0.2 ± 0.0 mg/g and the “increase of microalbuminuria vs control diet” value (megalin pathway) was “no detectable increase”. The “mean kidney cystine at 8 months-of-age” value (Ctns KO mice kidneys) was 90.0 ± 32.3 nmol hemi-cystine/mg kidney protein, the “kidney cystine as percentage of mean control diet, pooled for 8 and 12 months-of-age” value (Ctns KO mice kidneys; Ctns KO mice) was “without reaching statistical significance” and the “NaPi-IIa and SGLT-2 mRNA levels (apical differentiation markers)” value (NaPi-IIa and SGLT-2) was “failed to protect”. For the same compound, the Calculated creatinine clearance ([2]; mouse, in vivo) was 40.7 ± 3.5 µL/min, the Serum creatinine ([2]; mouse, in vivo) was 0.9 ± 0.1 mg/dL and the “Serum cystatin-C” value ([2]; mouse, in vivo) was 1092 ± 56.5 ng/mL. The Serum glucose ([2]; mouse, in vivo) was 170.9 ± 9.5 mg/dL, the Serum phosphate ([2]; mouse, in vivo) was 9.7 ± 0.3 mg/dL and the Serum urea ([2]; mouse, in vivo) was 63.6 ± 3.8 mg/dL. The Urine creatinine ([2]; mouse, in vivo) was 22.1 ± 2.7 mg/dL, the Urine glucose/creatinine ([2]; mouse, in vivo) was 25.8 ± 4.0 g/g and the Urine phosphate/creatinine ([2]; mouse, in vivo) was 1.9 ± 0.2 g/g. The Urine urea/creatinine ([2]; mouse, in vivo) was 238.2 ± 17.3 g/g.

With `NCCCC[C@H](N)C(=O)O` [5x-L-lysine, L-lysine] the Urinary alanine [1] was 639.6 ± 279.6 mM/M creatinine, the Urinary cystine [1] was 504.5 ± 61.2 mM/M creatinine and the Urinary glycine [1] was 881.0 ± 265.9 mM/M creatinine. For the same compound, the “urinary lysine concentration reached” value [1, 3] was ~ 25 mM, the increase of cystinuria ([1]; Ctns KO mice) was 8 fold and the increase of argininuria [1, 4] was 25 fold. The increase of lysinuria [1, 4] was 210 fold, the concentration at 2 months ([1]; female, C57BL/6, mouse, in vivo, 6.5 g/kg/day, Ctns KO mice, read-out: serum lysine) was 581 ± 15.5 µM and the “mean kidney cystine at 8 months-of-age” value (Ctns KO mice kidneys) was 83.6 ± 38.7 nmol hemi-cystine/mg kidney protein. For the same compound, the “kidney cystine as percentage of mean control diet, pooled for 8 and 12 months-of-age” value (Ctns KO mice kidneys; Ctns KO mice) was “significantly lower than control”, the “cumulative decrease of kidney cystine accumulation” value (Ctns KO mice kidneys; Ctns KO mice, two-months treatment from 6-to-8 months of age) was “~ twofold” and the “NaPi-IIa and SGLT-2 mRNA levels (apical differentiation markers)” value (NaPi-IIa and SGLT-2) was “significant yet limited benefit”. The Body weight ([2]; Ctns KO mice at 8 months of age, 2 months of treatment, mean ± SEM) was 23.0 ± 0.9 g, the Serum creatinine [2, 5] was 0.8 ± 0.1 (n = 9) mg/dL and the “Serum cystatin-C” value [2, 5] was 669.2 ± 33.2 ng/mL. The Serum glucose [2, 5] was 169.1 ± 9.3 (n = 9) mg/dL, the Serum phosphate [2, 5] was 10.1 ± 0.5 (n = 9) mg/dL and the Serum urea [2, 5] was 58.3 ± 2.6 (n = 9) mg/dL. It also gave a Daily creatinine output [2, 6] of 0.7 ± 0.1 mg/day, a Diuresis [2, 6] of 2.8 ± 0.2 mL/day and a Urine creatinine [2, 6] of 25.6 ± 2.5 mg/dL. It also gave a Urine glucose/creatinine [2, 6] of 19.0 ± 4.6 g/g, a Urine phosphate/creatinine [2, 6] of 2.3 ± 0.4 g/g and a Urine urea/creatinine [2, 6] of 173.0 ± 15.2 g/g.
